The source of these data is PubChem BioAssay (NCI).

Molecules are shown by their SMILES.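 Following 48 hours of exposure in 96-well plates, responses at five concentrations were used to interpolate endpoints linearly. Here, GI50 denotes the concentration required for 50% inhibition of growth. Definition used: TGI = concentration required for complete inhibition of growth.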 Where only a bound is given, the exact number is not on record here.

Test in all cases: DTP human tumour cell line panel, 48 h
Experiment [1] deals with NCI-H23 lung.
In experiment [2] the test system is A549 NSCLC.
Experiment [3] has as its system LOX IMVI melanoma.
Experiment [4] concerns SN12C renal.
For experiment [5], the system named is HL-60(TB) leukemia.
For experiment [6], the system named is NCI-H460 lung.
The subject of experiment [7] is COLO 205 colon.
For experiment [8], the system named is RPMI-8226 leukemia.
In experiment [9] the test system is HOP-92 NSCLC.
Experiment [10] has as its system NCI-H226 lung.

What is called GI50 is the concentration that inhibits growth by half. As usually defined, the TGI is the concentration at which net growth stops. Lower therefore signals greater sensitivity of the cells. On to `Cc1ccc(S(=O)(=O)Nc2ccc(-c3cc(-c4cccc(F)c4)c(C#N)c(N)n3)cc2)cc1`, for which the GI50 in [1] was 2.48 µM; in [2] it was 3.11 µM; in [3] it was 1.82 µM; in [4] it was 2.2 µM; in [5], 1.87 µM; in [6], 3.53 µM. For the same compound, the GI50 in [7] was 2.18 µM; in experiment [8], 2.21 µM; in experiment [9] it was 1.06 µM. For the same compound, the TGI in experiment [1] was 7.96 µM; in experiment [2], 15.7 µM; in [3], 3.66 µM; in experiment [4] it was 7.11 µM; in experiment [5], 6.07 µM; in experiment [6], 12.6 µM. Also, the TGI stood at 4.48 µM in [7], 8.92 µM in experiment [8] and 2.37 µM in [9].
As to `Cc1ccc(NC(=O)OCC(COc2ccc(Cl)cc2Cl)OC(=O)Nc2ccc(C)cc2)cc1` (stereo not drawn), the concentration for total growth inhibition (TGI) in [1], in [2], in [4], in experiment [6], in [7] and in experiment [8] was > 100 µM each time. The TGI in [10] and in experiment [9] was > 100 µM each time.
As for `COCCn1cc(-c2csc(-c3c[nH]c4ccc(Br)cc34)n2)c2cccnc21`, the GI50 in experiment [1] is 3.21 µM; in [2], 6.89 µM; in experiment [3], 2.67 µM; in experiment [4] it was 7.72 µM; in experiment [6], 3.07 µM; in experiment [7], 3.22 µM. The GI50 in experiment [8] is 5.14 µM; in experiment [9] it was 4.39 µM. Besides, the TGI in experiment [1] is > 100 µM; in [2], > 100 µM; in experiment [3] it was > 100 µM; in experiment [4], > 100 µM; in experiment [6], > 100 µM; in experiment [7], 34 µM. Besides, the TGI is > 100 µM in experiment [8] and 30.7 µM in [9].
Turning to `O=C(O)CCC(C(=O)O)N1C(=O)C2C3CCC(C3)C2C1=O` (stereo not drawn), the TGI in experiment [1], in [2], in experiment [3], in [4], in experiment [6] and in experiment [7] was > 100 µM in each case. Also, the TGI in experiment [8], in experiment [10] and in experiment [9] was > 100 µM throughout.
On to `CC(=O)O[C@H]1CC2C=CC3C(CCC31)O2` (stereo partly drawn), for which the TGI in experiment [1], in experiment [2], in experiment [3], in [4], in experiment [5] and in experiment [6] was > 100 µM each time. Moreover, the TGI in [7] is > 100 µM.
Take `C=C(CCCO)[C@@H]1CC[C@@](C)(O)[C@H]1C`: the TGI in experiment [1], in [2], in experiment [4], in experiment [6], in [7] and in [8] was > 100 µM throughout. Moreover, in experiment [10], the TGI was > 100 µM.
As to `CC(C)C1N2CCCCC2[C@@H]2c3[nH]c4ccccc4c3CCN12` (stereo partly drawn), the TGI in [1], in experiment [2], in experiment [4], in experiment [5], in experiment [6] and in [7] was > 100 µM in each case. Also, the TGI in [8] and in experiment [9] was > 100 µM throughout.
For `C/C(=N\NC(=O)CC(=O)N(C(=O)c1ccc(Cl)cc1)c1ccc(C)cc1)c1ccccc1O`, the TGI in experiment [1], in experiment [2], in experiment [4], in [6], in experiment [7] and in [8] was > 100 µM throughout. In addition, in experiment [10], the TGI is > 100 µM.
On to `CCCCCC[C@H](C)NC(=O)c1ccc(Nc2nc3ccccc3c3occc23)cc1`, for which the GI50 is 2.41 µM in experiment [1]; 4.35 µM in [2]; 11.4 µM in [3]; 24.5 µM in [4]; 4.47 µM in experiment [5]; 3.81 µM in experiment [6]. The GI50 in [7] is 3.07 µM; in [8] it was 4.03 µM; in [9], 3 µM. Further, the TGI is 6.08 µM in experiment [1]; > 100 µM in [2]; 24.3 µM in experiment [3]; 97.3 µM in [4]; 48.9 µM in experiment [5]; > 100 µM in [6]. The TGI in experiment [7] is 8.45 µM; in [8] it was > 100 µM; in experiment [9] it was 50.4 µM.
Consider `C=CCc1c(O)c(C(=O)/C=C/c2ccccc2)c(OC)c2ccoc12`, for which the GI50 is 2.52 µM in experiment [1]; 4.41 µM in [2]; 1.56 µM in experiment [3]; 3.79 µM in experiment [4]; 2.79 µM in experiment [6]; 5.96 µM in experiment [7]. Further, the results for the GI50 in [8], in experiment [10] and in experiment [9] were 1.88 µM, 1.48 µM and 1.33 µM, respectively. The TGI in experiment [2] worked out at 22.1 µM; in [3], 2.93 µM; in experiment [4], 14.1 µM; in experiment [6] it was 10.7 µM; in experiment [7], 18.1 µM; in [8] it was 6.76 µM. Further, the TGI was 3.21 µM in [10] and 4.82 µM in experiment [9].
As to `Fc1ccc(Nc2nc3ccccc3c3occc23)cc1`, the GI50 in experiment [1] was 1.48 µM; in experiment [2] it was 8.99 µM; in experiment [3], 3.41 µM; in experiment [4], 12.9 µM; in [5], 10.8 µM; in experiment [6] it was 4.61 µM. In addition, the GI50 was 3.3 µM in experiment [7], 3.56 µM in experiment [8] and 5.8 µM in experiment [9]. Moreover, the TGI in experiment [1] is 4.86 µM; in experiment [2] it was 23.2 µM; in experiment [3] it was 17.9 µM; in experiment [4], 27.2 µM; in experiment [5], 36.8 µM; in [6] it was 19 µM. Also, the results for the TGI in experiment [7], in [8] and in experiment [9] were 12.9 µM, 15 µM and 19.4 µM, respectively.
